Data published in patent US8580812B2, “Heteroaryl amide analogues as P2X7 antagonists” (H. Lundbeck A/S, priority 2007, dated 2013).

Target: T1, P2X7 (Homo sapiens, UniProt Q99572)
T1 construct: host or cells: SH-SY5Y
T1 sequence (Q99572 1-595): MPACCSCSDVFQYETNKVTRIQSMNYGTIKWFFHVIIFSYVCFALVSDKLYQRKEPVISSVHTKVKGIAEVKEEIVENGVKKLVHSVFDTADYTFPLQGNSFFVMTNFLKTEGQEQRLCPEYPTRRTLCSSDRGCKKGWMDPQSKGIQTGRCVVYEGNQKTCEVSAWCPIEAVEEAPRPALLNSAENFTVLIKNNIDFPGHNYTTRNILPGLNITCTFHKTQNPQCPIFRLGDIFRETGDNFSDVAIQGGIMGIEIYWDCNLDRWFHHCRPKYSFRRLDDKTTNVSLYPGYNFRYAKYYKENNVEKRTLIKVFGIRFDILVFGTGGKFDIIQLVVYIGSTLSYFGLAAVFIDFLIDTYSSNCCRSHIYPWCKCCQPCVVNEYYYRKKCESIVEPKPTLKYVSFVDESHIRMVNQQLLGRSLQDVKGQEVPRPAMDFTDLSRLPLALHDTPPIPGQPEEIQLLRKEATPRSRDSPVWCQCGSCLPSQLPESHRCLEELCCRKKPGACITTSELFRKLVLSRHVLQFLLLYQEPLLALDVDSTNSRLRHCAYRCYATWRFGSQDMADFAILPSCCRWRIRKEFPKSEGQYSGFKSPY
Experiment: High Throughput P2X7 Calcium Mobilization Assay (Example 4A), antagonist activity
Assay type: cell-based
Conditions: SH-SY5Y cells, 50% decrease in fluorescence response of cells exposed to 80 μM BzATP
How it was run: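 SH-SY5Y cells loaded with Fluo-4 AM were preincubated 1 h at room temperature with compound (typically 1–2500 nM) in sucrose/HEPES buffer, pH 7.4, then challenged with 80 μM BzATP (final, about EC50). Peak fluorescence over 2 min gave percent inhibition relative to agonist-only wells, and IC50 came from a Hill-equation fit.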

| IC50 | SMILES |
| --- | --- |
| ≤ 2 µM | Cc1nc2c(c(=O)[nH]1)CN(C(=O)c1cc3c(C(=O)NCC45CC6CC(CC(C6)C4)C5)cccn3n1)CC2 [Compound 30, N-(adamantan-1-ylmethyl)-2-[(2-methyl-4-oxo-3,5,7,8-tetrahydropyrido[4,3-d]pyrimidin-6(4H)-yl)carbonyl]pyrazolo [1,5-a]pyridine-4-carboxamide] |
| ≤ 2 µM | CC(C)CC(CNC(=O)c1cccn2nc(C(=O)N3CC[C@@H](N)C3)cc12)c1cccnc1 (stereo partly drawn) [Compound 56, 2-{[(3R)-3-aminopyrrolidin-1-yl]carbonyl}-N-(4-methyl-2-pyridin-3-ylpentyl)pyrazolo[1,5-a]pyridine-4-carboxamide] |
| ≤ 2 µM | COCCNC(=O)c1cc2c(C(=O)NCC34CC5CC(CC(C5)C3)C4)cccn2n1 [Compound 42, 4-N-(adamantan-1-ylmethyl)-2-N-(2-methoxyethyl)pyrazolo [1,5-a]pyridine-2,4-dicarboxamide] |
| ≤ 2 µM | CN(CC(F)F)C(=O)c1cc2c(C(=O)NCC34CC5CC(CC(C5)C3)C4)cccn2n1 [Compound 75, 4-N-(adamantan-1-ylmethyl)-2-N-(2,2-difluoroethyl)-2-N-methylpyrazolo[1,5-a]pyridine-2,4-dicarboxamide] |
| ≤ 2 µM | CN(Cc1cnn(C)c1)C(=O)c1cc2c(C(=O)NCC34CC5CC(CC(C5)C3)C4)cccn2n1 [Compound 49, 4-N-(adamantan-1-ylmethyl)-2-N-methyl-2-N-[(1-methyl-1H-pyrazol-4-yl)methyl]pyrazolo[1,5-a]pyridine-2,4-dicarboxamide] |
| ≤ 2 µM | CN(Cc1cccnc1)Cc1cc2c(C(=O)NCC34CC5CC(CC(C5)C3)C4)cccn2n1 [Compound 54, N-(adamantan-1-ylmethyl)-2-{[methyl(pyridin-3-ylmethyl)amino]methyl} pyrazolo[1,5-a]pyridine-4-carboxamide] |
| ≤ 2 µM | O=C(CC12CC3CC(CC(C3)C1)C2)Nc1cccn2nc(C(=O)N3CCOCC3)cc12 [Compound 96, 2-adamantan-1-yl-N-[2-(morpholin-4-ylcarbonyl)pyrazolo [1,5-a]pyridin-4-yl]acetamide] |
| ≤ 2 µM | O=C(Cc1cc2c(C(=O)NCC34CC5CC(CC(C5)C3)C4)cccn2n1)NCC(F)(F)F [Compound 61, N-(adamantan-1-ylmethyl)-2-{2-oxo-2-[(2,2,2-trifluoroethyl)amino]ethyl}pyrazolo[1,5-a]pyridine-4-carboxamide] |
| ≤ 2 µM | CC(C)CC(CNC(=O)c1cccn2nc(C(=O)N3C[C@@H](C)O[C@@H](C)C3)cc12)c1ccc(C(F)(F)F)cc1 (single isomer, unassigned) [Compound 100] |
| ≤ 2 µM | CN(CC(F)F)C(=O)Cc1cc2c(C(=O)NCC34CC5CC(CC(C5)C3)C4)cccn2n1 [Compound 78, N-(adamantan-1-ylmethyl)-2-{2-[(2,2-difluoroethyl)(methyl)amino]-2-oxoethyl}pyrazolo[1,5-a]pyridine-4-carboxamide] |
